This is an account of results in patent US12404304B1, “Telomerase reverse transcriptase (TERT) expression enhancing compounds and methods for using the same” (Sierra Sciences, LLC, priority 2007, dated 2025).

The data set relates to viable cells in culture. As to the kind of experiment: Cell viability assay (CellTiter-Glo Luminescent Cell Viability Assay, ATP quantitation, percent of vehicle control). (In general: Cellular ATP, detected with luciferase, serves as a proxy for viable cell number.)

As to `CCC(=O)NC(c1ccc(N(C)C)cc1)c1ccc2cccnc2c1O` (centres unmarked) [compound 1001], the “Average Cell Viability after 24 Hours (% DMSO)” value was 44.55 % DMSO.

Take `Oc1c(CN2CCN(c3cccc(Cl)c3)CC2)cc(Br)c2cccnc12` [compound 1002]: the “Average Cell Viability after 24 Hours (% DMSO)” value amounted to 57.70 % DMSO.

For the molecule `CN1CCN(Cc2cc(COCc3ccccc3)c3cccnc3c2O)CC1` [compound 1003], the “Average Cell Viability after 24 Hours (% DMSO)” value worked out at 73.53 % DMSO.

Turning to `Oc1c(C(Nc2ccccn2)c2ccc(OC3CCCC3)cc2)ccc2cccnc12` (centres unmarked) [compound 1004], the “Average Cell Viability after 24 Hours (% DMSO)” value worked out at 54.71 % DMSO.

`COc1cc(C(Nc2ccccn2)c2ccc3cccnc3c2O)cc(Br)c1OC` (centres unmarked) [compound 1005]: the “Average Cell Viability after 24 Hours (% DMSO)” value came out at 64.80 % DMSO.

As to `Oc1c(C(Nc2ccccn2)c2cccc(Cl)c2Cl)ccc2cccnc12` (centres unmarked) [compound 1006], the “Average Cell Viability after 24 Hours (% DMSO)” value was 69.78 % DMSO.

For `Oc1c(C(Nc2ccccn2)c2ccccc2Br)ccc2cccnc12` (centres unmarked) [compound 1007], the “Average Cell Viability after 24 Hours (% DMSO)” value amounted to 68.00 % DMSO.

In the case of `COC(=O)c1ccc(C(Nc2cc(C)ccn2)c2ccc3ccc(C)nc3c2O)cc1` (centres unmarked) [compound 1008], the “Average Cell Viability after 24 Hours (% DMSO)” value stood at 67.58 % DMSO.

`Oc1c(C(Nc2ccccn2)c2c(Cl)cccc2Cl)ccc2cccnc12` (centres unmarked) [compound 1009]: the “Average Cell Viability after 24 Hours (% DMSO)” value turned out to be 68.59 % DMSO.

On to `CCN(CC)c1ccc(C(NC(=O)C(C)C)c2cc(Cl)c3cccnc3c2O)cc1` (centres unmarked) [compound 1011], for which the “Average Cell Viability after 24 Hours (% DMSO)” value was found to be 64.50 % DMSO.

Consider `COc1ccc(C(=O)NC(c2ccco2)c2cc(Cl)c3cccnc3c2O)cc1` (centres unmarked) [compound 1012], for which the “Average Cell Viability after 24 Hours (% DMSO)” value is 60.73 % DMSO.

Consider `COc1cccc(C(=O)NC(c2ccc(OC)c(OC)c2)c2cc(Cl)c3cccnc3c2O)c1` (centres unmarked) [compound 1013], for which the “Average Cell Viability after 24 Hours (% DMSO)” value is on record as 74.96 % DMSO.

Take `COc1ccc(C(=O)NC(c2ccc(Cl)cc2)c2cc(Cl)c3cccnc3c2O)cc1` (centres unmarked) [compound 1014]: the “Average Cell Viability after 24 Hours (% DMSO)” value worked out at 28.33 % DMSO.

Turning to `O=C(COc1ccccc1)NC(/C=C/c1ccccc1)c1cc(Cl)c2cccnc2c1O` (centres unmarked) [compound 1015], the “Average Cell Viability after 24 Hours (% DMSO)” value is 74.68 % DMSO.

On to `COc1ccc(C(=O)NC(/C=C/c2ccccc2)c2cc(Cl)c3cccnc3c2O)cc1` (centres unmarked) [compound 1016], for which the “Average Cell Viability after 24 Hours (% DMSO)” value is 42.84 % DMSO.

Consider `COc1cccc(C(=O)NC(/C=C/c2ccccc2)c2cc(Cl)c3cccnc3c2O)c1` (centres unmarked) [compound 1017], for which the “Average Cell Viability after 24 Hours (% DMSO)” value is listed as 75.48 % DMSO.

On to `Oc1c(I)cc(I)c2cccnc12` [compound 1018], for which the “Average Cell Viability after 24 Hours (% DMSO)” value is listed as 56.90 % DMSO.

Regarding `Oc1c(Br)cc(Br)c2cccnc12` [compound 1019], the “Average Cell Viability after 24 Hours (% DMSO)” value is recorded as 35.74 % DMSO.

Turning to `Oc1c(Cl)cc(Cl)c2cccnc12` [compound 1020], the “Average Cell Viability after 24 Hours (% DMSO)” value is on record as 25.10 % DMSO.

Regarding `CC(=O)NC(c1ccc(Br)cc1)c1ccc2cccnc2c1O` (centres unmarked) [compound 1022], the “Average Cell Viability after 24 Hours (% DMSO)” value worked out at 63.83 % DMSO.

`COc1ccc(C(NC(C)=O)c2ccc3cccnc3c2O)cc1OC` (centres unmarked) [compound 1023]: the “Average Cell Viability after 24 Hours (% DMSO)” value is recorded as 75.33 % DMSO.

Consider `CC(=O)NC(c1ccc(C)cc1)c1ccc2cccnc2c1O` (centres unmarked) [compound 1024], for which the “Average Cell Viability after 24 Hours (% DMSO)” value is 95.15 % DMSO.

Consider `CC(=O)NC(c1ccccc1Cl)c1ccc2cccnc2c1O` (centres unmarked) [compound 1025], for which the “Average Cell Viability after 24 Hours (% DMSO)” value stood at 93.50 % DMSO.

For the molecule `CCCCC(=O)NC(c1ccccc1OC)c1cc([N+](=O)[O-])c2cccnc2c1O` (centres unmarked) [compound 1027], the “Average Cell Viability after 24 Hours (% DMSO)” value was 62.71 % DMSO.

As to `O=[N+]([O-])c1cc(CN2CCN(c3ccccc3)CC2)c(O)c2ncccc12` [compound 1029], the “Average Cell Viability after 24 Hours (% DMSO)” value came to 32.00 % DMSO.

Take `CC(=O)NC(c1ccc(C(C)C)cc1)c1ccc2cccnc2c1O` (centres unmarked) [compound 1030]: the “Average Cell Viability after 24 Hours (% DMSO)” value is listed as 73.78 % DMSO.

`CCCCC(=O)NC(c1ccccc1Cl)c1cc([N+](=O)[O-])c2cccnc2c1O` (centres unmarked) [compound 1031]: the “Average Cell Viability after 24 Hours (% DMSO)” value was found to be 76.88 % DMSO.

Take `CCC(=O)NC(c1ccc(OC)c(OC)c1)c1cc(Cl)c2cccnc2c1O` (centres unmarked) [compound 1032]: the “Average Cell Viability after 24 Hours (% DMSO)” value stood at 75.67 % DMSO.

Take `CCOc1cc(C(NC(C)=O)c2cc([N+](=O)[O-])c3cccnc3c2O)ccc1O` (centres unmarked) [compound 1033]: the “Average Cell Viability after 24 Hours (% DMSO)” value is on record as 84.43 % DMSO.

Turning to `CC(=O)NC(c1ccco1)c1cc([N+](=O)[O-])c2cccnc2c1O` (centres unmarked) [compound 1034], the “Average Cell Viability after 24 Hours (% DMSO)” value turned out to be 83.39 % DMSO.

Take `CCC(=O)NC(/C=C/c1ccccc1)c1cc([N+](=O)[O-])c2cccnc2c1O` (centres unmarked) [compound 1035]: the “Average Cell Viability after 24 Hours (% DMSO)” value is on record as 62.45 % DMSO.

For `CCCC(=O)NC(c1ccc(O)c(OCC)c1)c1cc([N+](=O)[O-])c2cccnc2c1O` (centres unmarked) [compound 1036], the “Average Cell Viability after 24 Hours (% DMSO)” value was found to be 73.28 % DMSO.

For `CC(=O)NC(c1ccc(Cl)cc1)c1cc([N+](=O)[O-])c2cccnc2c1O` (centres unmarked) [compound 1037], the “Average Cell Viability after 24 Hours (% DMSO)” value was found to be 67.96 % DMSO.

In the case of `CCC(=O)NC(c1ccco1)c1cc(Cl)c2cccnc2c1O` (centres unmarked) [compound 1039], the “Average Cell Viability after 24 Hours (% DMSO)” value came to 72.76 % DMSO.

Consider `CCCCC(=O)NC(c1ccc(OC)cc1)c1cc([N+](=O)[O-])c2cccnc2c1O` (centres unmarked) [compound 1040], for which the “Average Cell Viability after 24 Hours (% DMSO)” value was found to be 61.11 % DMSO.

Consider `CCC(=O)NC(c1ccccc1Cl)c1cc(Cl)c2cccnc2c1O` (centres unmarked) [compound 1041], for which the “Average Cell Viability after 24 Hours (% DMSO)” value turned out to be 72.82 % DMSO.

Regarding `CC(C)C(=O)NC(c1ccc(Cl)cc1Cl)c1ccc2cccnc2c1O` (centres unmarked) [compound 1042], the “Average Cell Viability after 24 Hours (% DMSO)” value stood at 55.51 % DMSO.

For the molecule `CCC(=O)NC(c1ccccc1OC)c1cc(Cl)c2cccnc2c1O` (centres unmarked) [compound 1043], the “Average Cell Viability after 24 Hours (% DMSO)” value is listed as 47.47 % DMSO.

Consider `CCCC(=O)NC(c1ccc(Cl)cc1)c1cc([N+](=O)[O-])c2cccnc2c1O` (centres unmarked) [compound 1044], for which the “Average Cell Viability after 24 Hours (% DMSO)” value was 85.35 % DMSO.

For `O=C(NC(c1ccc(Cl)cc1)c1ccc2cccnc2c1O)C1CCCCC1` (centres unmarked) [compound 1045], the “Average Cell Viability after 24 Hours (% DMSO)” value is 60.30 % DMSO.

In the case of `CCCCC(=O)NC(c1ccc2c(c1)OCO2)c1cc([N+](=O)[O-])c2cccnc2c1O` (centres unmarked) [compound 1046], the “Average Cell Viability after 24 Hours (% DMSO)” value was determined as 78.00 % DMSO.

For `Cc1ccc(C(NC(=O)C2CCCCC2)c2ccc3cccnc3c2O)cc1` (centres unmarked) [compound 1047], the “Average Cell Viability after 24 Hours (% DMSO)” value came to 69.78 % DMSO.

On to `CCCC(=O)NC(c1cccs1)c1cc([N+](=O)[O-])c2cccnc2c1O` (centres unmarked) [compound 1048], for which the “Average Cell Viability after 24 Hours (% DMSO)” value is on record as 70.37 % DMSO.

With `CCC(=O)NC(c1ccc(C)cc1)c1cc([N+](=O)[O-])c2cccnc2c1O` (centres unmarked) [compound 1049], the “Average Cell Viability after 24 Hours (% DMSO)” value is 65.63 % DMSO.

For the molecule `CC(=O)NC(c1ccccc1)c1cc([N+](=O)[O-])c2cccnc2c1O` (centres unmarked) [compound 1050], the “Average Cell Viability after 24 Hours (% DMSO)” value was 62.77 % DMSO.

Consider `CCC(=O)NC(c1ccccc1OC)c1cc([N+](=O)[O-])c2cccnc2c1O` (centres unmarked) [compound 1051], for which the “Average Cell Viability after 24 Hours (% DMSO)” value was found to be 65.27 % DMSO.

For `CC(=O)NC(c1cccs1)c1cc(Cl)c2cccnc2c1O` (centres unmarked) [compound 1052], the “Average Cell Viability after 24 Hours (% DMSO)” value was determined as 60.80 % DMSO.
